pIC50: −log10 of the molar value. Where two headings read alike, the source gives them in different places.
Key:
IDH1^R132C = target: T1, IDH1^R132C (Homo sapiens, UniProt O75874, R132C); assay: NADPH depletion assay, IDH1 R132C; type: biochemical
T1 construct: purchased not specified
Method in brief: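 IDH1 R132C (2 nM) preincubated 15 min at RT with compound in Tris-HCl pH 7.6/MgCl2 buffer, then 60 min RT with NADPH and 0.14 mM alpha-ketoglutarate. Remaining NADPH read by diaphorase/resazurin fluorescence (Ex544/Em590).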

HT-1080 (IDH1^R132C) = assay: Cellular 2-HG production assay, HT-1080; type: cell-based; conditions: Homo sapiens, HT-1080, 72 h, read-out: HT1080 2-HG IC50
Method: (§1) Cell lines HT-1080 (commercially available) and U87-MG-IDH1^R132H (obtained in analoy to the procedure reported in J. Mol. Neurosci 2013, 50, 165-71) are maintained in E-MEM 10% FCS and incubated at 37° C. in a humidified 5% CO2 atmosphere. Stably transfected U87-MG cell lines are also supplemented with 500 μg/mL G418.
(§2) Cells are seeded into 96 well black flat bottom plates at a density of 500 cells/well in 100 μL complete medium. After 24 hr the medium is replaced with 200 uL of fresh medium and compounds (dissolved into DMSO) are administrated to the cells using D300E Digital Dispenser (Tecan).
(§3) After 72 hr of incubation 100 uL from each well are collected and used for 2HG (R(−)-2-hydroxyglutarate) quantification.
(§4) Levels of 2-HG in cell culture media are determined by LC-MS/MS. Cell supernatants (100 μL/well) are treated with 1 M aqueous trichloroacetic acid containing 130 μM of the internal standard 2-HG-d3 (20 μL/well) in a 96-well plate.
(§5) The plates are sealed, mildly vortexed for 60 minutes, centrifuged at 4,000 RPM for 15 minutes, placed in a refrigerated autosampler taking care not to shake them, and aliquots of the upper part of the samples are directly injected in the chromatographic system. Calibration standards are obtained by ten fold dilution of aqueous 2-HG stock solutions with blank cell culture medium and denatured exactly in the same way as described above for samples. Samples and standards are assayed for 2-HG by reversed phase chromatography on a C18 column eluted with aqueous 0.15% formic acid and briefly washed with 90% methanol at the end of the run. 2-HG is determined by negative ion electrospray ionization with the internal standard method on a triple quadrupole mass spectrometer monitoring the MRM transitions 147>129 (2-HG) and 150>132 (2-HG-d3). 2-HG inhibition was calculated by comparing treated versus control data using Assay Explore (Symyx) software, with IC50 determined using a sigmoidal fitting algorithm.

IDH2^R172K = target: T2, IDH2^R172K (Homo sapiens, UniProt P48735, R172K); assay: NADPH depletion assay, IDH2 R172K; type: biochemical
T2 construct: purchased not specified
T2 sequence (P48735 40-452 R172K): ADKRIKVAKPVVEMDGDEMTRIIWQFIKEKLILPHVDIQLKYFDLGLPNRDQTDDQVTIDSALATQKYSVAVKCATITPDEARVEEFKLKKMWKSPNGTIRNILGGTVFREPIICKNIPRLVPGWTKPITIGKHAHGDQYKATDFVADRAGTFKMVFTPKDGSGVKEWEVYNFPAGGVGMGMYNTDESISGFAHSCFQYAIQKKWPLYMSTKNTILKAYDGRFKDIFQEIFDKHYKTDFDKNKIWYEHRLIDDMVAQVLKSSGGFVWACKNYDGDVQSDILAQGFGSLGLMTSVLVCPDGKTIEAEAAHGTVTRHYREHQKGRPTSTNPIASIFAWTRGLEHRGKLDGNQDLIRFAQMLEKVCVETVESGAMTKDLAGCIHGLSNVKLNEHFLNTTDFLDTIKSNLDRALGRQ
Method in brief: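 IDH2 R172K (16 nM) was preincubated 15 min at RT with compound (1:3 series from 1 mM in DMSO) in Tris pH 7.6/NaCl/MgCl2/Triton/β-mercaptoethanol. The reaction ran 60 min at RT with 0.55 mM alpha-ketoglutarate and NADPH (12 μM in the substrate mix). Remaining NADPH was read with diaphorase/resazurin fluorescence at Ex544/Em590.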

[1] = target: T3, IDH1^R132H homodimer enzyme (Homo sapiens, UniProt O75874, R132H); assay: NADPH depletion assay, IDH1 R132H; type: biochemical
T3 construct: purchased not specified
T3 sequence (O75874 whole entry R132H): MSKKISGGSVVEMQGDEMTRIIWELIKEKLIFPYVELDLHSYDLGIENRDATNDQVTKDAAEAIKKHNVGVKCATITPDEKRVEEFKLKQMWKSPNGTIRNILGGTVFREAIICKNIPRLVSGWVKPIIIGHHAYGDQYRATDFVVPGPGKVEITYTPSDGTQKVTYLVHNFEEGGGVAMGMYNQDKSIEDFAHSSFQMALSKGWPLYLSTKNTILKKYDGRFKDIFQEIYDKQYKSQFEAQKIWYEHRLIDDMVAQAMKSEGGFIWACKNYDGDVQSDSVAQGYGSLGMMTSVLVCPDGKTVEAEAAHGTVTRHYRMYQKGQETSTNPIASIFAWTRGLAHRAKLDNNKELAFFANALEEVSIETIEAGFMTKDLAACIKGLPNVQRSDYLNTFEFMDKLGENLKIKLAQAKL
Method in brief: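 IDH1 R132H enzyme (8 nM as diluted) in Tris-HCl pH 7.6 with 10 mM MgCl2, 0.001% Triton X-100 and 4 mM β-mercaptoethanol is preincubated 15 min at RT with compound. Substrate mix (12 uM NADPH, 3.4 mM α-ketoglutarate) is added for 60 min; remaining NAD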

U87MG_IDH1R132H = assay: Cellular 2-HG production assay, U87-MG-IDH1 R132H; type: cell-based; conditions: inhibition of 2HG production, 72 hr incubation, LC-MS/MS
Method: as §1, §2, §3, §4, §5

[2] = inhibition of 2HG production, 72 hr incubation, LC-MS/MS

T1 sequence (O75874 whole entry R132C): as the sequence (O75874 whole entry R132H) above, with H132C counted along it

SMILES	pIC50 (IDH1^R132C)	pIC50 (HT-1080 (IDH1^R132C); [2])	pIC50 (IDH2^R172K)	pIC50 [1]	pIC50 (U87MG_IDH1R132H)	pIC50 (HT-1080 (IDH1^R132C))
C[C@H](Nc1ncc2ccc(=O)n(CC(C)(C)CO)c2n1)c1ccc2ccccc2c1 [cpd 38, 8-(3-hydroxy-2,2-dimethylpropyl)-2-{[(1S)-1-(naphthalen-2-yl)ethyl]amino}pyrido[2,3-d]pyrimidin-7(8H)-one]	7.17		5.12	6.86	5.58	
C[C@H](Nc1ncc2ccc(=O)n(CC(C)(C)C)c2n1)c1cc2cc(Cl)ccc2[nH]c1=O [cpd 50, 2-{[(1S)-1-(6-chloro-2-oxo-quinolin-3-yl)ethyl]amino}-8-(2,2-dimethylpropyl)pyrido[2,3-d]pyrimidin-7(8H)-one]	7.42		5.60	7.17	5.60	
C[C@H](Nc1ncc2ccc(=O)n([C@@H](C)C(C)(C)C)c2n1)c1ccc(CN2CCCC(F)(F)C2)cc1 [cpd 69, 2-{[(1S)-1-{4-[(3,3-difluoropiperidin-1-yl)methyl]phenyl}ethyl]amino}-8-[(2S)-3,3-dimethylbutan-2-yl]pyrido [2,3-d]pyrimidin-7(8H)-one]	7.66			7.44	7.11	
C[C@H](Nc1ncc2ccc(=O)n(Cc3c(F)cccc3F)c2n1)c1ccc(C(=O)NC2CCC(F)(F)CC2)cc1 [cpd 75, 4-[(1S)-1-{[8-(2,6-difluorobenzyl)-7-oxo-pyrido[2,3-d]pyrimidin-2-yl]amino}ethyl]-N-(4,4-difluorocyclohexyl)benzamide]	6.37			6.39	5.92	
C[C@H](Nc1ncc2ccc(=O)n(Cc3c(F)cccc3F)c2n1)c1ccc(C(=O)N2CCC(F)(F)CC2)cc1 [cpd 77, 8-(2,6-difluorobenzyl)-2-{[(1S)-1-{4-[(4,4-difluoropiperidin-1-yl)carbonyl]phenyl}ethyl]amino} pyrido[2,3-d]pyrimidin-7(8H)-one]	6.68			6.68	5.52	
C[C@H](Nc1ncc2ccc(=O)n(CC(C)(C)C)c2n1)c1ccc(C(=O)N2CCC(F)(F)CC2)cc1 [cpd 83, 2-{[(1S)-1-{4-[(4,4-difluoropiperidin-1-yl)carbonyl]phenyl}ethyl]amino}-8-(2,2-dimethylpropyl) pyrido[2,3-d]pyrimidin-7(8H)-one]	6.71		5.37	6.46	5.69	
Cc1ccccc1Cn1c(=O)ccc2cnc(N[C@@H](C)c3ccc(CN4CCC(F)(F)CC4)cc3)nc21 [cpd 112, 2-{[(1S)-1-{4-[(4,4-difluoropiperidin-1-yl)methyl]phenyl}ethyl]amino}-8-(2-methylbenzyl)pyrido[2,3-d]pyrimidin-7(8H)-one]	6.75			6.72	5.79	
C[C@H](Nc1ncc2ccc(=O)n(CC(C)(C)CO)c2n1)c1ccc(-c2ccsc2)cc1 [cpd 136, 8-(3-hydroxy-2,2-dimethylpropyl)-2-({(1S)-1-[4-(thiophen-3-yl)phenyl]ethyl}amino)pyrido[2,3-d]pyrimidin-7 (8H)-one]	7.27			6.91	5.54	
C=CC(=O)N1CCN(C(=O)c2ccc([C@H](C)Nc3ncc4ccc(=O)n(CC(C)(C)C)c4n3)cc2F)CC1 [cpd 142, 2-{[(1S)-1-{4-[(4-acryloylpiperazin-1-yl)carbonyl]-3-fluorophenyl}ethyl]amino}-8-(2,2-dimethylpropyl)pyrido [2,3-d]pyrimidin-7(8H)-one]	6.67		6.26	6.75		7.12
CC(C)[C@H](C)n1c(=O)ccc2cnc(N[C@@H](C)c3ccc(CN4C[C@@H](C)O[C@@H](C)C4)c(F)c3)nc21 [cpd 150, 2-{[(1S)-1-(4-{[(2R,6S)-2,6-dimethylmorpholin-4-yl]methyl}-3-fluorophenyl)ethyl]amino}-8-[(2S)-3-methylbutan-2-yl]pyrido[2,3-d]pyrimidin-7(8H)-one]	8.10			7.70	6.90	
C=CC(=O)N1CCN([C@@H](CC)c2ccc([C@H](C)Nc3cc4c(ccc(=O)n4C(C)C)cn3)cc2)CC1 [cpd 239, 7-{[(1S)-1-{4-[(1S)-1-(4-acryloylpiperazin-1-yl)propyl]phenyl}ethyl]amino}-1-(propan-2-yl)-1,6-naphthyridin-2(1H)-one]	8.70	9.05	7.70	8.70		

The remaining compounds from weak to strong by pIC50 [1], led by results:

pIC50 (IDH1^R132C)	pIC50 (HT-1080 (IDH1^R132C); [2])	pIC50 (IDH2^R172K)	pIC50 [1]	pIC50 (U87MG_IDH1R132H)	SMILES	pIC50 (HT-1080 (IDH1^R132C))
6.92		5.29	6.56	5.75	CC(C)Cn1c(=O)ccc2cnc(N[C@@H](C)c3ccc(CN4CCC(F)(F)CC4)cc3)nc21 [cpd 104, 2-{[(1S)-1-{4-[(4,4-difluoropiperidin-1-yl)methyl]phenyl}ethyl]amino}-8-(2-methylpropyl)pyrido[2,3-d]pyrimidin-7(8H)-one]	
7.18	6.29		6.63		C/C=C/C(=O)N1CCN(Cc2ccc([C@H](C)Nc3ncc4ccc(=O)n(CC(C)(C)C)c4n3)cc2)CC1 [cpd 143, 2-({(1S)-1-[4-({4-[(2E)-but-2-enoyl]piperazin-1-yl}methyl)phenyl]ethyl}amino)-8-(2,2-dimethylpropyl) pyrido [2,3-d]pyrimidin-7(8H)-one]	
6.88		5.44	6.70	5.86	C[C@H](Nc1ncc2ccc(=O)n(Cc3c(F)cccc3F)c2n1)c1ccc(CN2CCC(F)(F)CC2)cc1 [cpd 99, 8-(2,6-difluorobenzyl)-2-{[(1S)-1-{4-[(4,4-difluoropiperidin-1-yl)methyl]phenyl}ethyl]amino}pyrido[2,3-d]pyrimidin-7(8H)-one]	
		5.18	6.75	5.39	C[C@H](Nc1ncc2ccc(=O)n(CC(C)(C)C)c2n1)c1ccc2ccccc2c1 [cpd 36, 8-(2,2-dimethylpropyl)-2-{[(1S)-1-(naphthalen-2-yl)ethyl]amino}pyrido[2,3-d]pyrimidin-7(8H)-one]	
6.87			6.84	5.88	CC(Nc1ncc2ccc(=O)n(CC(C)(C)C)c2n1)c1ccc(C(=O)NC2CCC(F)(F)CC2)c(Cl)c1 (centres unmarked) [cpd 82, 2-chloro-N-(4,4-difluorocyclohexyl)-4-(1-{[8-(2,2-dimethylpropyl)-7-oxo-pyrido[2,3-d]pyrimidin-2-yl]amino}ethyl) benzamide]	
7.70			7.02	6.49	C[C@@H]1CN(Cc2ccc([C@H](C)Nc3ncc4ccc(=O)n(CC(C)(C)C)c4n3)c(F)c2)C[C@H](C)O1 [cpd 151, 2-{[(1S)-1-(4-{[(2R,6S)-2,6-dimethylmorpholin-4-yl]methyl}-2-fluorophenyl)ethyl]amino}-8-(2,2-dimethylpropyl)pyrido[2,3-d]pyrimidin-7(8H)-one]	
8.40	9.05	7.60	8.40		C=CC(=O)N1CCN([C@@H](CC)c2ccc([C@H](C)Nc3cc4c(ccc(=O)n4CC)cn3)cc2)CC1	

— patent US12018023B2 (NERVIANO MEDICAL SCIENCES S.R.L., priority 2018, dated 2024)
